Source: ChEMBL document CHEMBL4507270 (2021)

Tests used:
[1] = system: Receptor-type tyrosine-protein kinase FLT3 (Homo sapiens), P36888 [R834Q]
[2] = target: Alpha-2C adrenergic receptor (Homo sapiens) (UniProt P18825); settings: Compound concentration 10.0 uM
[3] = target: MAP kinase-activated protein kinase 2 (Homo sapiens) (UniProt P49137)
[4] = system: Phosphatidylinositol 4,5-bisphosphate 3-kinase catalytic subunit alpha isoform (Homo sapiens), P42336 [C420R]
[5] = system: Serine/threonine-protein kinase B-raf (Homo sapiens), P15056 [V600E]
[6] = target: Cyclin-dependent kinase-like 3 (Homo sapiens) (UniProt Q8IVW4)
[7] = target: Activin receptor type-1B (Homo sapiens) (UniProt P36896)
[8] = target: cAMP-dependent protein kinase catalytic subunit PRKX (Homo sapiens) (UniProt P51817)
Chain of cAMP-dependent protein kinase catalytic subunit PRKX (Homo sapiens) (P51817 whole entry): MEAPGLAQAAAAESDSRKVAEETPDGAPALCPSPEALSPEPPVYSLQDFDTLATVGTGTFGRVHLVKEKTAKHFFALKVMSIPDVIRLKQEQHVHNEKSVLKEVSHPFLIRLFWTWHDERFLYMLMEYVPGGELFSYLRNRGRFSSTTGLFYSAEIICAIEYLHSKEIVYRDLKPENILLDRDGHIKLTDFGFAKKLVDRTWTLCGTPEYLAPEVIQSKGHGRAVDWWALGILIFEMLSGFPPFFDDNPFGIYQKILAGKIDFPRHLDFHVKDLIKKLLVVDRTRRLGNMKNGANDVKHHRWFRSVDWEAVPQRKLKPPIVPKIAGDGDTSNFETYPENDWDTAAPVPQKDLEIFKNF

[9] = target: Cyclin-dependent kinase 17 (Homo sapiens) (UniProt Q00537)
[10] = target: Serine/threonine-protein kinase Nek11 (Homo sapiens) (UniProt Q8NG66)
[11] = target: Serine/threonine-protein kinase TAO3 (Homo sapiens) (UniProt Q9H2K8)
[12] = target: Serine/threonine-protein kinase PAK 4 (Homo sapiens) (UniProt O96013)
[13] = target: Cyclin-dependent kinase 19 (Homo sapiens) (UniProt Q9BWU1)
Chain of Cyclin-dependent kinase 19 (Homo sapiens) (Q9BWU1 whole entry): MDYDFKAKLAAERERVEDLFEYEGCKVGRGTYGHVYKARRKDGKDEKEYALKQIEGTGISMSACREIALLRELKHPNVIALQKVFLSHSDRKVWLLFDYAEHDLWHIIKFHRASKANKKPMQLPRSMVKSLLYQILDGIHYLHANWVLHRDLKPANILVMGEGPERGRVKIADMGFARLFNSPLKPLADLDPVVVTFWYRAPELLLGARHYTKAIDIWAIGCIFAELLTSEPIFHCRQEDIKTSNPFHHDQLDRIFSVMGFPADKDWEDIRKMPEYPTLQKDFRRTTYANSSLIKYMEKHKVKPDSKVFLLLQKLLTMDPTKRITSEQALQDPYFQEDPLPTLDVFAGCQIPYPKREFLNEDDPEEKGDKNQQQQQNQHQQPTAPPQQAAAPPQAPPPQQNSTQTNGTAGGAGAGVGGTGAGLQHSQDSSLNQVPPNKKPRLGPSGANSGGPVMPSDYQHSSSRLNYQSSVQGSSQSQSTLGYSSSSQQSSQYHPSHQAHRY

[14] = system: Tyrosine-protein kinase ABL1 (Homo sapiens), P00519 [H396P]
[15] = target: Cyclin-dependent kinase-like 2 (Homo sapiens) (UniProt Q92772)
[16] = system: Tyrosine-protein kinase ABL1 (Homo sapiens), P00519 [F317L]
[17] = target: TGF-beta receptor type-1 (Homo sapiens) (UniProt P36897)
Chain of TGF-beta receptor type-1 (Homo sapiens) (P36897 whole entry): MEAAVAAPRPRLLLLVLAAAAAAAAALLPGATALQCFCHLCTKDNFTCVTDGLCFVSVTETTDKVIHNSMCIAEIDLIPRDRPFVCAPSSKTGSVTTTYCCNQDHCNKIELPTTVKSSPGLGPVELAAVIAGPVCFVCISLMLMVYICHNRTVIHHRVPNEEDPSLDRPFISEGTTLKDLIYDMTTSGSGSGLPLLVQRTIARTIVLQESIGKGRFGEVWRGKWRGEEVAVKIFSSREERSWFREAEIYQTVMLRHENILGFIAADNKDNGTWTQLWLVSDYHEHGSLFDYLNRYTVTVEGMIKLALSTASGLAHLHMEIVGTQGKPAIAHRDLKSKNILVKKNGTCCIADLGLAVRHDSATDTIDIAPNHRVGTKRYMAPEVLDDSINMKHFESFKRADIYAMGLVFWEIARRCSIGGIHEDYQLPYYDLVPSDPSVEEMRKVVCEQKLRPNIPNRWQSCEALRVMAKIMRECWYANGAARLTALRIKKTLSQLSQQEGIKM

[18] = target: Ribosomal protein S6 kinase alpha-2 (Homo sapiens) (UniProt Q15349)
[19] = target: Phosphatidylinositol 4,5-bisphosphate 3-kinase catalytic subunit gamma isoform (Homo sapiens) (UniProt P48736)
[20] = target: Serine/threonine-protein kinase 24 (Homo sapiens) (UniProt Q9Y6E0)
Angiopoietin-1 receptor = Angiopoietin-1 receptor (Homo sapiens, UniProt Q02763)
[21] = target: Mitogen-activated protein kinase kinase kinase 14 (Homo sapiens) (UniProt Q99558)
[22] = target: Tyrosine-protein kinase Yes (Homo sapiens) (UniProt P07947)
Chain of Tyrosine-protein kinase Yes (Homo sapiens) (P07947 2-543 limits assumed): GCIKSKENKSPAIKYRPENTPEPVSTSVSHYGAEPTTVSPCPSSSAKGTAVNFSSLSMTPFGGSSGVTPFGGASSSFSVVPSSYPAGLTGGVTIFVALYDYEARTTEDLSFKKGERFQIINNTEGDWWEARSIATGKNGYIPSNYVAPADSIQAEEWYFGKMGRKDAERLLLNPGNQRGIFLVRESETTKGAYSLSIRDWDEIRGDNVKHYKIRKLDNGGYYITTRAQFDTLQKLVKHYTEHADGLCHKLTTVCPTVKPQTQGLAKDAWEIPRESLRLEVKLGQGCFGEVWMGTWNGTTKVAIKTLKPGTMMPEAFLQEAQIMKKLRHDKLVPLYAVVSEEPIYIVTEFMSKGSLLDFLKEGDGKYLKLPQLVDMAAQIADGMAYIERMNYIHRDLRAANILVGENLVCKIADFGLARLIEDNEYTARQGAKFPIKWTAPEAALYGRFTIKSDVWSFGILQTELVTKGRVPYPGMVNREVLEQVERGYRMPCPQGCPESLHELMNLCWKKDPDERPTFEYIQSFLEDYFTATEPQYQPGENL

[23] = target: Serine/threonine-protein kinase WNK4 (Homo sapiens) (UniProt Q96J92)
[24] = target: Serine/threonine-protein kinase 32C (Homo sapiens) (UniProt Q86UX6)
[25] = system: Phosphatidylinositol 4,5-bisphosphate 3-kinase catalytic subunit alpha isoform (Homo sapiens), P42336 [H1047L]
[26] = target: Mitogen-activated protein kinase 11 (Homo sapiens) (UniProt Q15759)
Chain of Mitogen-activated protein kinase 11 (Homo sapiens) (Q15759 whole entry): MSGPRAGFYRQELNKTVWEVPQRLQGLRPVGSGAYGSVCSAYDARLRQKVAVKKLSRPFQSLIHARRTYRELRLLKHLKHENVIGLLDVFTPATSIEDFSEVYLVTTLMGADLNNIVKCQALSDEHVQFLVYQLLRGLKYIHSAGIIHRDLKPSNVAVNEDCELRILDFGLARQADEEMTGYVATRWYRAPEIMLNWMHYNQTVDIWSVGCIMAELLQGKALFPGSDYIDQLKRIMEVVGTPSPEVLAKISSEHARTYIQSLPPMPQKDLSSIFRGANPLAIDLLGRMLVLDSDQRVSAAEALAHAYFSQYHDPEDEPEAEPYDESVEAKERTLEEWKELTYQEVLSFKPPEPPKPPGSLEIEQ

[27] = target: Calcium/calmodulin-dependent protein kinase type 1G (Homo sapiens) (UniProt Q96NX5)
[28] = target: Mitogen-activated protein kinase 6 (Homo sapiens) (UniProt Q16659)
Chain of Mitogen-activated protein kinase 6 (Homo sapiens) (Q16659 whole entry): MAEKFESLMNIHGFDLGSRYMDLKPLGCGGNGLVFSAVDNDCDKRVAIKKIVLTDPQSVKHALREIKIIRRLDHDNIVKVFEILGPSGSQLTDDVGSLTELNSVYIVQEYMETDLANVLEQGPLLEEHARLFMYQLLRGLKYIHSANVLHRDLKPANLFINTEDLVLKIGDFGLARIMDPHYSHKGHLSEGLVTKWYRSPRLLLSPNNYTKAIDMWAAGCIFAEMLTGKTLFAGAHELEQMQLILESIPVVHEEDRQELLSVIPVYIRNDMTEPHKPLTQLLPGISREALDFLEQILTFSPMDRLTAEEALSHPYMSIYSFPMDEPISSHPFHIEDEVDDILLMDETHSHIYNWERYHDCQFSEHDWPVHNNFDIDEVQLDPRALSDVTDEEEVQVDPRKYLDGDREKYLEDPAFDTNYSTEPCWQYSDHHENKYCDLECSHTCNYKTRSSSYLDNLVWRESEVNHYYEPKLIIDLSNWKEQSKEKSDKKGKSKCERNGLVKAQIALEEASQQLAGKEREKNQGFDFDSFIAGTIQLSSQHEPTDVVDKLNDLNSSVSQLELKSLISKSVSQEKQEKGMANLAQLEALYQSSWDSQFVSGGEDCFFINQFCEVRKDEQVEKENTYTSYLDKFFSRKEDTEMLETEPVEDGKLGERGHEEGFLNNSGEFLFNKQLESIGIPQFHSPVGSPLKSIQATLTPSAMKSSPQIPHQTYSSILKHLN

[29] = target: Serine/threonine-protein kinase PAK 2 (Homo sapiens) (UniProt Q13177)
Chain of Serine/threonine-protein kinase PAK 2 (Homo sapiens) (Q13177 whole entry): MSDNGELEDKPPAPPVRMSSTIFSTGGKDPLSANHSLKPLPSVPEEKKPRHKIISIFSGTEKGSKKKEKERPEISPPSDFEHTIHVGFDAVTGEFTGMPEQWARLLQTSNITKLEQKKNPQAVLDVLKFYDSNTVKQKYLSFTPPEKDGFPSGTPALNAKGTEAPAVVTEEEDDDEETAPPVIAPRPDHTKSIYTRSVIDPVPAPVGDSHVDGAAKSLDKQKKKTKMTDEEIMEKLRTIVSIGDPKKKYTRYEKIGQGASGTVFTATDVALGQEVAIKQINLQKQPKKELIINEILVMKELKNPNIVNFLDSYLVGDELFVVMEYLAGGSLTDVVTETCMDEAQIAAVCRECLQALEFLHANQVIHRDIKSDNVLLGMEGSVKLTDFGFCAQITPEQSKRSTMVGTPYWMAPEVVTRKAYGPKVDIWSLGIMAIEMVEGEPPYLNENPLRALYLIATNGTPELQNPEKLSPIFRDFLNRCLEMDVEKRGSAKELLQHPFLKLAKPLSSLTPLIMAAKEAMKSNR

[30] = target: Tyrosine-protein kinase ZAP-70 (Homo sapiens) (UniProt P43403)
[31] = target: Phosphatidylinositol 4-phosphate 5-kinase type-1 alpha (Homo sapiens) (UniProt Q99755)
[32] = target: 5-hydroxytryptamine receptor 3A (Homo sapiens) (UniProt P46098); settings: Compound concentration 10.0 uM
[33] = target: Serine/threonine-protein kinase pim-3 (Homo sapiens) (UniProt Q86V86)
[34] = target: Inhibitor of nuclear factor kappa-B kinase subunit beta (Homo sapiens) (UniProt O14920)
[35] = target: Homeodomain-interacting protein kinase 4 (Homo sapiens) (UniProt Q8NE63)
[36] = target: Calcium-dependent protein kinase 1 (Plasmodium falciparum) (UniProt P62344)
Chain of Calcium-dependent protein kinase 1 (Plasmodium falciparum) (P62344 2-524 limits assumed): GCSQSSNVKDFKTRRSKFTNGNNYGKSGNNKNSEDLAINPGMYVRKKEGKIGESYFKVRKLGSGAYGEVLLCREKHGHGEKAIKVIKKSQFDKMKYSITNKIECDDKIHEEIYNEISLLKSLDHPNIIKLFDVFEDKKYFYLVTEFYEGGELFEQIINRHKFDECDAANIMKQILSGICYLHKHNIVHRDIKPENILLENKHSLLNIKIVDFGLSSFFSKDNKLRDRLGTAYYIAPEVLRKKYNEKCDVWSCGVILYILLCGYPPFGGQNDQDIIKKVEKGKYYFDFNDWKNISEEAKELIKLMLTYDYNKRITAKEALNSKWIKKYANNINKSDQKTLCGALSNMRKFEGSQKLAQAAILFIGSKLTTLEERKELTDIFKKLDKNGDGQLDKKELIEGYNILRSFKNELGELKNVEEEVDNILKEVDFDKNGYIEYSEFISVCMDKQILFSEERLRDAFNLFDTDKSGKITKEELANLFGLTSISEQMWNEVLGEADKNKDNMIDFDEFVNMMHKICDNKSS

[37] = system: Phosphatidylinositol 4,5-bisphosphate 3-kinase catalytic subunit alpha isoform (Homo sapiens), P42336 [E545A]
[38] = target: Casein kinase I isoform epsilon (Homo sapiens) (UniProt P49674)
Chain of Casein kinase I isoform epsilon (Homo sapiens) (P49674 whole entry, looked up, canonical isoform): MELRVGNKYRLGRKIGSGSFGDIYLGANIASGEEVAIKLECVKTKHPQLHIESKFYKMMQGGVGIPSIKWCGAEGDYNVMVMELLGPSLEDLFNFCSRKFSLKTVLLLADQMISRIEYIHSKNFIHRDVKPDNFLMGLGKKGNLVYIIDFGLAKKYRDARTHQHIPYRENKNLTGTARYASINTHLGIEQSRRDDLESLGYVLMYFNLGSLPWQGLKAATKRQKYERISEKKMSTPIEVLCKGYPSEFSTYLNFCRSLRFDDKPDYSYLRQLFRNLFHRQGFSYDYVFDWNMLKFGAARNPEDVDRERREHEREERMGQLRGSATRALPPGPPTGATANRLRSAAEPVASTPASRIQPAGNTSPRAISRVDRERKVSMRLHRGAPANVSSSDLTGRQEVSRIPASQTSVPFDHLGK

[39] = Compound concentration 1000.0 nM
[40] = Compound concentration 100.0 nM

Chain of Alpha-2C adrenergic receptor (Homo sapiens) (P18825 whole entry): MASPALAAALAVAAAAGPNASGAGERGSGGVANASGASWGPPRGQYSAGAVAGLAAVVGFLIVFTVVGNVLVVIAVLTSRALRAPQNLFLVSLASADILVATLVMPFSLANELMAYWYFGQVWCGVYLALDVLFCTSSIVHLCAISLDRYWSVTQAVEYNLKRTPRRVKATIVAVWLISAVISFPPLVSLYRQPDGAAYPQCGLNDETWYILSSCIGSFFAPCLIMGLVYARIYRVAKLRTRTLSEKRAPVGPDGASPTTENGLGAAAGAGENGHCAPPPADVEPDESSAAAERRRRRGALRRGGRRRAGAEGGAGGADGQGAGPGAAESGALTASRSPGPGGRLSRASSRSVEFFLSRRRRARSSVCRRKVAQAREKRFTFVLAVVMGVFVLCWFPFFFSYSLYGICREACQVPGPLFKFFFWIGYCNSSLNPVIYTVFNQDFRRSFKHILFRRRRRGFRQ

`Cc1cc(NC(=O)c2cccc(S(F)(F)(F)(F)F)c2)cc(-n2ccn3nc(-c4cccnc4)cc23)c1` [BAY-309] was tested, and the residual activity [1, 39] was 100%, the inhibition [2] was -5.04% and the residual activity [3, 39] was 100%. It also gave a residual activity [4, 39] of 97.1%, a residual activity [5, 39] of 24.4% and a residual activity [6, 39] of 100%. For the same compound, the residual activity [7, 39] was 100%, the residual activity [8, 39] was 100% and the residual activity [9, 39] was 83.8%. It also gave a residual activity [10, 39] of 57.5%, a residual activity [11, 39] of 100% and a residual activity [12, 39] of 91.8%. It also gave a residual activity [13, 39] of 84.1%, a residual activity [14, 39] of 66.9% and a residual activity [15, 39] of 100%. The residual activity [16, 39] was 72.9%, the residual activity [17, 39] was 74.3% and the residual activity [18, 39] was 100%. The residual activity [19, 39] was 100%, the residual activity [20, 39] was 100% and the residual activity (Angiopoietin-1 receptor; [39]) was 84.2%. It also gave a residual activity [21, 39] of 73.8%, a residual activity [22, 39] of 100% and a residual activity [23, 39] of 100%. It also gave a residual activity [24, 39] of 75.8%, a residual activity [25, 39] of 100% and a residual activity [26, 39] of 98.1%. It also gave a residual activity [27, 39] of 100%, a residual activity [28, 39] of 100% and a residual activity [29, 39] of 100%. The residual activity [30, 39] was 100%, the residual activity [31, 39] was 100% and the inhibition [32] was -8.73%. The residual activity [33, 39] was 100%, the residual activity [34, 39] was 65.5% and the residual activity [35, 39] was 100%. The residual activity [36, 39] was 95.1%, the residual activity [37, 39] was 69.2% and the residual activity [38, 39] was 75.7%.

`Cc1cc(C)c(-n2ccn3nc(-c4cccnc4)cc23)cc1NC(=O)c1cc(C#N)cc(S(F)(F)(F)(F)F)c1` [BAY-826] was tested, and the residual activity [1, 40] was 62.3%, the inhibition [2] was -7.91% and the residual activity [3, 40] was 100%. The residual activity [4, 40] was 85.4%, the residual activity [5, 40] was 100% and the residual activity [6, 40] was 81.2%. The residual activity [7, 40] was 100%, the residual activity [8, 40] was 68.5% and the residual activity [9, 40] was 99.3%. It also gave a residual activity [10, 40] of 86.1%, a residual activity [11, 40] of 47.1% and a residual activity [12, 40] of 70.4%. The residual activity [13, 40] was 90.7%, the residual activity [14, 40] was 69% and the residual activity [15, 40] was 75.6%. It also gave a residual activity [16, 40] of 63.3%, a residual activity [17, 40] of 98.2% and a residual activity [18, 40] of 65.1%. The residual activity [19, 40] was 98.5%, the residual activity [20, 40] was 75.9% and the residual activity (Angiopoietin-1 receptor; [40]) was 3.1%. The residual activity [21, 40] was 100%, the residual activity [22, 40] was 70.7% and the residual activity [23, 40] was 100%. For the same compound, the residual activity [24, 40] was 83.4%, the residual activity [25, 40] was 82.7% and the residual activity [26, 40] was 93.4%. It also gave a residual activity [27, 40] of 100%, a residual activity [28, 40] of 85.8% and a residual activity [29, 40] of 89.8%. It also gave a residual activity [30, 40] of 79.9%, a residual activity [31, 40] of 95% and an inhibition [32] of 18.4%. The residual activity [33, 40] was 83.1%, the residual activity [34, 40] was 100% and the residual activity [35, 40] was 95.6%. The residual activity [36, 40] was 88.9%, the residual activity [37, 40] was 73% and the residual activity [38, 40] was 98.7%.
